Laboratory results as given in patent US20040121965A1, “Method of treating resistant tumors” (Wyeth Holdings Corporation, priority 2002, published 2004).
Where two headings read alike, the source gives them in different places.

What was measured:
KB-V1 (MDR1++) = assay: Cell survival assay (SRB), KB-V1 (MDR1++); conditions: for IC50: Homo sapiens
KB-8-5 (MDR1+) = assay: Cell survival assay (SRB), KB-8-5 (MDR1+); conditions: for IC50: Homo sapiens, MDR1, read-out: In vitro IC50 (nM) KB85
KB-3-1 = assay: Cell survival assay (SRB), KB-3-1; type: cell-based, human; conditions: Homo sapiens, KB 3-1, KB-3-1 cells (paclitaxel-sensitive parent); read-out: In vitro IC50 (nM) KB-3-1
Text: Cells lines with previously known mechanisms of resistance. […] Res. 8: 207-218,1996); KB-3-1 (parental derived from an epidermoid carcinoma), KB-8.5, KB-V1 (Akiyama S-I, Fojo A, Hanover J A, Pastan I, Gottesman M M. Isolation and genetic characterization of human KB cell lines resistant to multiple drugs. Somatic Cell Mol. Gen., 11: 117-126,1985; Shen D-W, Cardarelli C, Hwang J, Cornwell M, Richert N, Ishii S, Pastan I, Gottesman MM. […] J. Biol. Chem., 261: 7762-7770, 1986); and HL-60 (parental derived from human leukemia) and HL60/AR (McGrath T., Center M. S. Adriamycin resistance in HL60 cells in the absence of detectable P-glycoprotein. Biochem. Res. Commun., 145:1171-1176,1987); A549 and A549.EpoB40 (He L., Yang C.-P.H., Horwitz S. B. Mutations in p-tubulin map to domains involved in regulation of microtubule stability in epothilone-resistant cell lines. Molecular Cancer Therapeutics. 1: 3-10, 2001). HCT-15 human colon carcinoma and DLD-1 human colon carcinoma are obtained from American Tissue Culture Collection. The MX-1W carcinoma is a Wyeth variant orginally obtained as MX-1 breast carcinoma from the National Cancer Institute. Cell lines selected for resistance to Representative Example 129. KB-3-1 cells are selected for resistance to Example 129 by chronically exposing cells to increasing concentrations of Example 129.
2.2. Cell Survival Assay: Standard Pharmacological Test Procedure. The concentration of candidate inhibitor required to inhibit 50% of cell growth (IC50) is done according to previously reported methods. […] Compounds are serially diluted into media as 2× stocks and 100 μl added to cells in duplicate. Compounds are incubated with cells for 3 days. At the end of the incubation period the sulforhodamine B (SRB) assay, which measures protein content as an assessment of cell survival, is performed as described previously (Skehan P, Storeng R, Scudiero D, Monks A, McMahon J, Vistica D, Warren J T, Bokesch H, Kenney S, Boyd MR. New calorimetric cytotoxicity assay for anticancer-drug screening. J Natl Cancer Inst 1990 Jul 4;82(13):1107-12) with some modification as follows. For KB-3-1 cells with 20% FCS, media is gently decanted and replaced with 200 μl of serum-free media mixed with cold 50% TCA for a final concentration of 10% TCA. The plates are incubated for 1 hr at 4° C., followed by washing 5 times in cold distilled water, then air dried overnight. The fixed cells are stained for 10 min with 80 μl of 0.04% SRB solution prepared in 1% glacial acetic acid. Stain is discarded and plates washed 5 times in 1% glacial acetic acid, then air-dried until completely dry. Stained cell product is dissolved in 150 μl of 10 mM Trizma Base and placed on a shaker for 20 minutes until fully dissolved. Absorbance is read on a Victor V multi-label plate reader (Perkin Elmer, Gaithersburg, Md.).

[1] = read-out: In vitro IC50 (nM) KBV1

Row | SMILES | Ratio KBV1/KB (KB-V1 (MDR1++)) | IC50 (KB-V1 (MDR1++); [1]) | Ratio KB85/KB (KB-8-5 (MDR1+)) | IC50 (KB-8-5 (MDR1+)) | IC50 (KB-3-1) | IC50 (KB-V1 (MDR1++); read-out: In vitro IC50 KBV1)
1 | CN[C@@H](C(=O)N[C@H](C(=O)N(C)[C@H](/C=C(\C)C(=O)O)C(C)C)C(C)(C)C)C(C)(C)c1ccccc1C [Example 36, N,β,β,2-Tetramethyl-D-phenylalanyl-N^1-[(1S,2E)-3-carboxy-1-isopropyl-2-butenyl]-N^1,3-dimethyl-L-valinamide] | 83.5 | 501 nM | 2.3 | 13.8 nM | 6 nM | –
2 | CN[C@H](C(=O)N[C@H](C(=O)N(C)[C@H](/C=C(\C)C(=O)O)C(C)C)C(C)(C)C)C(C)(C)c1cccc(Br)c1 [Example 37, 3-bromo-N,β,β-trimethyl-L-phenylalanyl-N^1-[(1S,2E)-3-carboxy-1-isopropylbut-2-enyl]-N^1,3-dimethyl-L-valinamide] | 82.2 | 148 nM | 2.3 | 4.1 nM | 1.8 nM | –
3 | CN[C@H](C(=O)N[C@H](C(=O)N(C)[C@H](/C=C(\C)C(=O)O)C(C)C)C(C)(C)C)C(C)(C)c1cccc(-c2ccccc2)c1 [Example 39, 3-phenyl-N,β,β-trimethyl-L-phenylalanyl-N^1-[(1S,2E)-3-carboxy-1-isopropylbut-2-enyl]-N^1,3-dimethyl-L-valinamide] | 78.4 | 149 nM | 2.8 | 5.4 nM | 1.9 nM | –
4 | CN[C@H](C(=O)N[C@H](C(=O)N(C)[C@H](/C=C(\C)C(=O)O)C(C)C)C(C)(C)C)C(C)(C)c1ccc(Br)cc1 [Example 43, 4-bromo-N,β,β-trimethylphenylalanyl-N^1-[(1S,2E)-3-carboxy-1-isopropyl-2-butenyl]-N^1,3-dimethyl-L-valinamide] | 69.8 | 105 nM | 2.9 | 4.4 nM | 1.5 nM | –
5 | CN[C@H](C(=O)N[C@H](C(=O)N(C)[C@H](/C=C(\C)C(=O)O)C(C)C)C(C)(C)C)C(C)(C)c1ccc(C(=O)O)cc1 [Example 45, 4-carboxy-N,β,β-trimethylphenylalanyl-N^1-[(1S,2E)-3-carboxy-1-isopropylbut-2-enyl]-N^1,3-dimethyl-L-valinamide] | – | – | 2.3 | 1530 nM | 680 nM | > 3000 nM
6 | CN[C@H](C(=O)N[C@H](C(=O)N(C)[C@H](/C=C(\C)C(=O)O)C(C)C)C(C)(C)C)C(C)(C)c1cccc(OC)c1 [Example 46, 3-Methoxy-N,β,β-trimethylphenylalanyl-N^1-[(1S,2E)-3-carboxy-1-isopropyl-2-butenyl]-N^1,3-dimethyl-L-valinamide] | 64.0 | 224 nM | 1.7 | 5.9 nM | 3.5 nM | –
7 | CN[C@H](C(=O)N[C@H](C(=O)N(C)[C@H](/C=C(\C)C(=O)O)C(C)C)C(C)(C)C)C(C)(C)c1cccc(O)c1 [Example 47, 3-Hydroxy-N,β,β-trimethylphenylalanyl-N^1-[(1S,2E)-3-carboxy-1-isopropyl-2-butenyl]-N^1,3-dimethyl-L-valinamide] | 329.7 | 2310 nM | 5.4 | 37.5 nM | 7 nM | –
8 | CN[C@H](C(=O)N[C@H](C(=O)N(C)[C@H](/C=C(\C)C(=O)O)C(C)C)C(C)(C)C)C(C)(C)Cc1ccccc1 [Example 48, N,3-Dimethyl-4-phenyl-L-valyl-N^1-[(1S,2E)-3-carboxy-1-isopropyl-2-butenyl]-N^1,3-dimethyl-L-valinamide] | 81.0 | 219 nM | 2.2 | 6 nM | 2.7 nM | –
9 | CN[C@@H](C(=O)N[C@H](C(=O)N(C)[C@H](/C=C(\C)C(=O)O)C(C)C)C(C)(C)C)C(C)(C)Cc1ccccc1 [Example 49, N,3-dimethyl-4-phenyl-D-valyl-N^1-[(1S,2E)-3-carboxy-1-isopropyl-2-butenyl]-N^1,3-dimethyl-L-valinamide] | 99.8 | 2000 nM | 2.8 | 55 nM | 20 nM | –
